Data: ChEMBL document CHEMBL3112539, “Synthesis of neoglycosphingolipid from methoxyamino-functionalized ceramide” (Bioorg Med Chem Lett, 2014)
Active and inactive are the calls of the source. No cut-off for these calls is given here.

Tests used:
[1] = target: T1, Endoglycoceramidase II (Rhodococcus sp) (UniProt A0ACD6B832); assay: Inhibition of Rhodococcus sp. recombinant endoglycoceramidase 2 hydrolytic activity assessed as lactose released from O-LacCer at 0.74 mM after 15 mins by modified Park and Johnson method
T1 sequence (A0ACD6B832 as listed by the source): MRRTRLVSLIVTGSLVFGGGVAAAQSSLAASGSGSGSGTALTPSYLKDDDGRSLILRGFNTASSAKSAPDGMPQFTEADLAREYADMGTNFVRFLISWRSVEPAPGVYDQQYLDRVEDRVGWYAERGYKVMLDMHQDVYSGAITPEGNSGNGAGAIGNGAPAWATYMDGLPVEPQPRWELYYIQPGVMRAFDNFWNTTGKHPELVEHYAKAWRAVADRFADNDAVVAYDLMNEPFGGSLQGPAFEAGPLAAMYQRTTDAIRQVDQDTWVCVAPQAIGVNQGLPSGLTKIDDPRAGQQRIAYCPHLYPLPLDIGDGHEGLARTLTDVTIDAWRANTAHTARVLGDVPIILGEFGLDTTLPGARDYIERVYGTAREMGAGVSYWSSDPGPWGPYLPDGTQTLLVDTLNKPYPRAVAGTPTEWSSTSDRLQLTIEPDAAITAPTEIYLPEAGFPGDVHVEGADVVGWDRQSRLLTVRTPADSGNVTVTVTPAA

[2] = target: T1, Endoglycoceramidase II (Rhodococcus sp); assay: Competitive inhibition of Rhodococcus sp. recombinant endoglycoceramidase 2 hydrolytic activity assessed as lactose released from (2S,3S,4R)-2-[N-(octadecanoyl)amino]-1-{O-[beta-galactosylpyranosyl-(1->4)-beta-glucopyranosyl]}octadecane-1,3,4-triol at 0.27 mM after 15 mins by modified Park and Johnson method
[3] = target: T1, Endoglycoceramidase II (Rhodococcus sp); assay: Inhibition of Rhodococcus sp. recombinant endoglycoceramidase 2 hydrolytic activity assessed as lactose released from (2S,3S,4R)-2-[N-(octadecanoyl)amino]-1-{O-[beta-galactosylpyranosyl-(1->4)-beta-glucopyranosyl]}octadecane-1,3,4-triol at 0.27 mM after 15 mins by modified Park and Johnson method

Compound: CCCCCCCCCCCCCCCCCC(=O)N[C@@H](CN(OC)[C@@H]1O[C@H](CO)[C@@H](O[C@@H]2O[C@H](CO)[C@H](O)[C@H](O)[C@H]2O)[C@H](O)[C@H]1O)[C@H](O)[C@H](O)CCCCCCCCCCCCCC
- inhibition [1]: inactive
- inhibition [2]: Active
- inhibition [3]: Active
